Measurements: ChEMBL document CHEMBL1138430, “Novel tetrahydroisoquinolines are histamine H3 antagonists and serotonin reuptake inhibitors” (Bioorg Med Chem Lett, 2007)
Activity calls are given as the source filed them.

Columns and labels:
Homo sapiens [1] = species: Homo sapiens; assay: Binding affinity for chloride channel at 1 uM
[2] = target: 5-hydroxytryptamine receptor 5A (Homo sapiens) (UniProt P47898); assay: Binding affinity at 5HT5A receptor at 1 uM
[3] = target: Vasopressin V1a receptor (Homo sapiens) (UniProt P37288); assay: Binding affinity at vasopressin V1a receptor at 1 uM
Vasopressin V1a receptor (Homo sapiens), sequence (P37288 whole entry, looked up): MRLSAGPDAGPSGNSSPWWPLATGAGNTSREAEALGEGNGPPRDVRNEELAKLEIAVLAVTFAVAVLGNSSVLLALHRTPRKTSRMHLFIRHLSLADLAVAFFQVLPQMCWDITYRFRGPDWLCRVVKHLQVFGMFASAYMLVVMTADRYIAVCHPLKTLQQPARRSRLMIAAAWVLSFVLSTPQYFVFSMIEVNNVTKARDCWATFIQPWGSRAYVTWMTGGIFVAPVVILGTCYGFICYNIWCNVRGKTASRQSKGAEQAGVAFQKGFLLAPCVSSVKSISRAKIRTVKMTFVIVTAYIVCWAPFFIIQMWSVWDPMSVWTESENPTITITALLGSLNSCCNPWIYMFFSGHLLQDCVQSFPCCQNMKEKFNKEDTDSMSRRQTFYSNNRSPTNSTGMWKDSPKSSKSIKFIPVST

[4] = target: Muscarinic acetylcholine receptor M3 (Homo sapiens) (UniProt P20309); assay: Binding affinity at muscarinic M3 receptor at 1 uM
Muscarinic acetylcholine receptor M3 (Homo sapiens), sequence (P20309 whole entry, looked up): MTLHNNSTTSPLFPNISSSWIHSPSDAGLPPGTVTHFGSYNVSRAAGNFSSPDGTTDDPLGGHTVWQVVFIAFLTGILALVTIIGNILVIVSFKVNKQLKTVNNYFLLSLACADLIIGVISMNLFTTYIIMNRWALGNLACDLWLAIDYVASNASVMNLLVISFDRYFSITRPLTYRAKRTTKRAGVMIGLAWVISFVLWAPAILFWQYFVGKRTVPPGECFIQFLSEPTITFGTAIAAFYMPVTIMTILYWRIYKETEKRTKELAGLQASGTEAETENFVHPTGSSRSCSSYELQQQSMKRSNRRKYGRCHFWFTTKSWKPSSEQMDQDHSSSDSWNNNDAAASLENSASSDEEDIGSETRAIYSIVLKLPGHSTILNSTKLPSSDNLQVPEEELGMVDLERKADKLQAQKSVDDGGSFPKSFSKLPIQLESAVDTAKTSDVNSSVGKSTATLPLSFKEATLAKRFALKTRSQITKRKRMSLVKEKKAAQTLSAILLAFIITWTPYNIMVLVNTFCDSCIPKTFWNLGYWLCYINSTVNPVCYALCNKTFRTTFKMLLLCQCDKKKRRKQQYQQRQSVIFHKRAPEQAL

[5] = target: T1, Neuromedin-K receptor (Homo sapiens) (UniProt P29371); assay: Binding affinity at NK3 receptor at 1 uM
T1 sequence (whole entry): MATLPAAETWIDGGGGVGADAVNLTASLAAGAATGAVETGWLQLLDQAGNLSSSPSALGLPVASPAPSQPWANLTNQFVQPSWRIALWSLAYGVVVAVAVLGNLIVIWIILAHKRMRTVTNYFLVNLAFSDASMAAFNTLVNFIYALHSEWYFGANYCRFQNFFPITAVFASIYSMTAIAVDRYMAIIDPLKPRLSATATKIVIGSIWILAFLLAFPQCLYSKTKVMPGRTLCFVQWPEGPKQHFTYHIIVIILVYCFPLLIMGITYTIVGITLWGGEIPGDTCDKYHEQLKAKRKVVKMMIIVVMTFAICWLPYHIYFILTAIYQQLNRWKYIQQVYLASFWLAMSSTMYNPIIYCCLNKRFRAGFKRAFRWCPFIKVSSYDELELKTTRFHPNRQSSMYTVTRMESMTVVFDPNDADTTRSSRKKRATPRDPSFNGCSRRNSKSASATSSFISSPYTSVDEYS

[6] = target: T2, Adenosine receptor A1 (Homo sapiens) (UniProt P30542); assay: Binding affinity at adenosine A1 receptor at 1 uM
T2 sequence (whole entry): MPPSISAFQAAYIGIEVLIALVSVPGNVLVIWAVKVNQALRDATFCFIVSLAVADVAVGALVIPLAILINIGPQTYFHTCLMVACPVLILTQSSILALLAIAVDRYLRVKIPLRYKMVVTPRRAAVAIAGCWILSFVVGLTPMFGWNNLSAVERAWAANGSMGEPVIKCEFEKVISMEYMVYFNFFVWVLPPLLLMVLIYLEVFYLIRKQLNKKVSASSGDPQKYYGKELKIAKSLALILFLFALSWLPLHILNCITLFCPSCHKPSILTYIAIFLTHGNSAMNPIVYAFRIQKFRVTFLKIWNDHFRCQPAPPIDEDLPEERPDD

[7] = target: 5-hydroxytryptamine receptor 2A (Homo sapiens) (UniProt P28223); assay: Binding affinity at 5HT2A receptor at 1 uM
5-hydroxytryptamine receptor 2A (Homo sapiens), sequence (P28223 whole entry): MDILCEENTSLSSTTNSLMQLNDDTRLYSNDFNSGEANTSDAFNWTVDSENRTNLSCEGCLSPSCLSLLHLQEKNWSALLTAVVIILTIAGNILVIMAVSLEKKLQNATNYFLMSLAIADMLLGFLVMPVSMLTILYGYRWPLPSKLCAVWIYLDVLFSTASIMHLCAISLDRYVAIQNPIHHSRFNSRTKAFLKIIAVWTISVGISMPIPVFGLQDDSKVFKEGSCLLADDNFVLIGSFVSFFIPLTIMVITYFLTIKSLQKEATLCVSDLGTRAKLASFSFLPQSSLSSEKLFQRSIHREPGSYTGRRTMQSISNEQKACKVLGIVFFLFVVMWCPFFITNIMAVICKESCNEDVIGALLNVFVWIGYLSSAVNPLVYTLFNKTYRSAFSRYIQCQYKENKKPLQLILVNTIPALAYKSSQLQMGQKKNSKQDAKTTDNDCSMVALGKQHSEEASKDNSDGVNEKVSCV

Homo sapiens [8] = species: Homo sapiens; assay: Binding affinity at ML1 receptor at 1 uM
[9] = target: Delta-type opioid receptor (Homo sapiens) (UniProt P41143); assay: Binding affinity at DOP receptor at 1 uM
Delta-type opioid receptor (Homo sapiens), sequence (P41143 whole entry): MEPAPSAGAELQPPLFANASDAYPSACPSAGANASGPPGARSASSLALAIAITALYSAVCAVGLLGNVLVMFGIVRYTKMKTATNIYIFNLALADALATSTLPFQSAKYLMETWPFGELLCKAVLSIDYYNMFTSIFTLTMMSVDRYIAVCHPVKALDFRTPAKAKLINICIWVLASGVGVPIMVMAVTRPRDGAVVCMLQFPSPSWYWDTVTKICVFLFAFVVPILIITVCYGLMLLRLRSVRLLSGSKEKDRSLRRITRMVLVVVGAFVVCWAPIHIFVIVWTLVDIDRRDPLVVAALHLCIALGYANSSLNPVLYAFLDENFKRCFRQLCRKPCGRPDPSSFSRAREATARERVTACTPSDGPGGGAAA

Homo sapiens [10] = species: Homo sapiens; assay: Binding affinity at adrenergic alpha-2 receptor at 1 uM
[11] = target: T3, Adenosine receptor A3 (Homo sapiens) (UniProt P0DMS8); assay: Binding affinity at adenosine A3 receptor at 1 uM
T3 sequence (whole entry): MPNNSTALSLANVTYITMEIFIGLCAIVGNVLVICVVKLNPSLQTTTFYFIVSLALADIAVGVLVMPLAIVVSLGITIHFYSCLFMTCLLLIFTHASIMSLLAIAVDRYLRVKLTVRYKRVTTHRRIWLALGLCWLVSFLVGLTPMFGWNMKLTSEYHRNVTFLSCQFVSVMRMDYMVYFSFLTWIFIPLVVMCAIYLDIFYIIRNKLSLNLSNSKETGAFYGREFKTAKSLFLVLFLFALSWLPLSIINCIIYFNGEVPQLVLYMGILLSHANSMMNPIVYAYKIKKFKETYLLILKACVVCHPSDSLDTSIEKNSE

[12] = target: Beta-1 adrenergic receptor (Homo sapiens) (UniProt P08588); assay: Binding affinity at adrenergic beta-1 receptor at 1 uM
Beta-1 adrenergic receptor (Homo sapiens), sequence (P08588 whole entry, looked up): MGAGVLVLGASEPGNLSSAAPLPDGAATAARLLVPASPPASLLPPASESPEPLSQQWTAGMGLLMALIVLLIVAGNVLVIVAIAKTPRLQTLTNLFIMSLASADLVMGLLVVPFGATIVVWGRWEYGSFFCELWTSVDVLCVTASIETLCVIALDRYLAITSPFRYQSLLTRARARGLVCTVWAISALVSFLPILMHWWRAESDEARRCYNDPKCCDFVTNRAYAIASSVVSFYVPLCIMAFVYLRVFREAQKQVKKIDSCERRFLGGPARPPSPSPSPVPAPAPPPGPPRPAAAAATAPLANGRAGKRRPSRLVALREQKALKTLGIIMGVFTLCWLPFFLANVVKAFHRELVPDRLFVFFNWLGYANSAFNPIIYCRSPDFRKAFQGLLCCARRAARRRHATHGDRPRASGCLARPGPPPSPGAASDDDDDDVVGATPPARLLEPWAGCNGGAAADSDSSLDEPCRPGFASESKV

[13] = target: T4, Muscarinic acetylcholine receptor M2 (Homo sapiens) (UniProt P08172); assay: Binding affinity at muscarinic M2 receptor at 1 uM
T4 sequence (whole entry): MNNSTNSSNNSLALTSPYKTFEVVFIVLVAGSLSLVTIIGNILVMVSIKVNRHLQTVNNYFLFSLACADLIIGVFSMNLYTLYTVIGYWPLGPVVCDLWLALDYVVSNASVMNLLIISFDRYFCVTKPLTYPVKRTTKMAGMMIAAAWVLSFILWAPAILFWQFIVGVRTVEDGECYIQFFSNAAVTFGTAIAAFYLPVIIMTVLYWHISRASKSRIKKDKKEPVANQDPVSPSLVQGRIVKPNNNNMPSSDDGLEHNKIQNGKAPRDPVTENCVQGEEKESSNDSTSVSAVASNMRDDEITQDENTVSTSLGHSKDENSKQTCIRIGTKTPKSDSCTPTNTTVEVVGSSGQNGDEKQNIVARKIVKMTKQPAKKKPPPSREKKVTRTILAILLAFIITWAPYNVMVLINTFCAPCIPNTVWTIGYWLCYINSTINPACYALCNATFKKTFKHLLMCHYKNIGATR

[14] = target: T5, Muscarinic acetylcholine receptor M1 (Homo sapiens) (UniProt P11229); assay: Binding affinity at muscarinic M1 receptor at 1 uM
T5 sequence (whole entry): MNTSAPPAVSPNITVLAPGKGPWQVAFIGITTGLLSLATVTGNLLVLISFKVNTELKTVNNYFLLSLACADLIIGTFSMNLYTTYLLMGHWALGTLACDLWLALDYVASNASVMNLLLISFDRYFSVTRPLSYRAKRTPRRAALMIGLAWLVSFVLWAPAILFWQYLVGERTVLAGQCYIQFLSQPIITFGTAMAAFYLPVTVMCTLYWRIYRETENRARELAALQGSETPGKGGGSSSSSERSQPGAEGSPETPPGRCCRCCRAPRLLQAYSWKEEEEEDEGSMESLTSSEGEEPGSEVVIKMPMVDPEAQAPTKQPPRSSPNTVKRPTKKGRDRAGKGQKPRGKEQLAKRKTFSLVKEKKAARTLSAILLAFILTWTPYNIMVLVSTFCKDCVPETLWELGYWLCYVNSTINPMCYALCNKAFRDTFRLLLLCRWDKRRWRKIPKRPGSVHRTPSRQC

Measured: Activity

5-hydroxytryptamine receptor 5A (Homo sapiens), sequence (P47898 whole entry): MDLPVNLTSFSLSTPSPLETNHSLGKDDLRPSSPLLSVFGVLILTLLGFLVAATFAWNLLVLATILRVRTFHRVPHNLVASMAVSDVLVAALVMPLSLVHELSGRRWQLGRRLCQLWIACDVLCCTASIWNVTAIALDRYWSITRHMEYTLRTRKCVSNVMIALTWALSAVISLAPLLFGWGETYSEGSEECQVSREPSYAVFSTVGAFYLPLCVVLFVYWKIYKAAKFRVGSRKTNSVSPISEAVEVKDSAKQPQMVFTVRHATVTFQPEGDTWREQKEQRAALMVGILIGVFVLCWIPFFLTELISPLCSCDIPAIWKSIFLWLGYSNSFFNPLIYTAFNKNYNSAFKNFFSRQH

CSc1ccc(C2CN(C)Cc3cc(OCCCN4CCOCC4)ccc32)cc1 (racemic)
inactive: Homo sapiens [1] | [2] | [3] | [4] | [5] | [6] | [7] | Homo sapiens [8] | [9] | Homo sapiens [10] | [11] | [12] | [13] | [14]

CSc1ccc(C2CN(C)Cc3cc(OCCCN4CCC(F)CC4)ccc32)cc1 (racemic)
inactive: Homo sapiens [1] | [2] | [3] | [4] | [5] | [6] | [7] | Homo sapiens [8] | [9] | Homo sapiens [10] | [11] | [12] | [13] | [14]

COc1ccc([C@@H]2CN(C)Cc3cc(OCCCN4CCOC[C@@H]4C)ccc32)cc1
inactive: Homo sapiens [1] | [2] | [3] | [4] | [5] | [6] | [7] | Homo sapiens [8] | [9] | Homo sapiens [10] | [11] | [12] | [13] | [14]
